Measurements: patent US8231916B2, “Use of a rice protein hydrolysate as pigmenting active principle” (Laboratoires Expanscience, priority 2006, dated 2012)

Tested on: human cutaneous fibroblasts
Test: Intracellular glutathione (GSH) in dermal fibroblasts irradiated with UVA
Assay type: cell-based
Details: 5 mM, 15 J/cm^2 UVA
Protocol: Dermal fibroblasts were inoculated in 60 mm petri dishes. The cells were pre-treated for 18 hours with 5 mM rice peptides or N-acetyl-cysteine (NAC=reference antioxidant molecule) and then irradiated at a dose of 15 J/cm^2 UVA. After irradiation, the fibroblasts were incubated for an additional 3 h at 37° C.
At the end of the treatment, two series of samples were collected in order to evaluate: • a. Total quantity of proteins according to the Lowry method. • b. The ratio of intracellular glutathione by assay (commercial kit).

**Q.** Which results are given for CC(=O)N[C@@H](CS)C(=O)O [NAC, N-acetyl-cysteine]?
**A.** GSH (μmol/g proteins): 28.209 μmol/g proteins; GSH, % increase compared to irradiated control cells: 29%; GSH (18 hours pre-treatment): 21.10 µM
